According to the supplement of paper PMC11061612:

Tests used:
Test in all cases: combination Emax (second highest fraction inhibited in the dose matrix, 72 h); higher = more inhibition; extreme values may be limits of the assay
[1] = test system: OVISE (Ovarian Carcinoma)
How it was run: (§1)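 After 24 hours at 37°C and 5% CO2 in 1536-well plates, cells in DMEM/F12 or RPMI plus 10% FBS received two-drug dose matrices for 72 hours. Viability came from CellTiter-Glo 2.0 luminescence and was scaled as inhibition, anchored at 0 by vehicle wells and at 1 by blank wells. Combination Emax is taken as the second-highest inhibition in the matrix, and Bliss excess as the observed combination effect less EA + EB − EA·EB, with EA and EB the single-agent effects.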

[2] = test system: SCC-9 (Oral Cavity Carcinoma)
How it was run: as §1

[3] = test system: BT-20 (Breast Carcinoma)
How it was run: as §1

[4] = test system: A704 (Kidney Carcinoma)
How it was run: as §1

[5] = test system: RPMI-7951 (Melanoma)
How it was run: as §1

[6] = test system: OCUB-M (Breast Carcinoma)
How it was run: as §1

[7] = test system: MFE-319 (Endometrial Carcinoma)
How it was run: as §1

[8] = test system: EW-18 (Ewing's Sarcoma)
How it was run: as §1

[9] = test system: BV-173 (Chronic Myelogenous Leukemia)
How it was run: as §1

[10] = test system: SNU-C1 (Colorectal Carcinoma)
How it was run: as §1

[11] = test system: KINGS-1 (Low Grade Glioma)
How it was run: as §1

[12] = test system: SCC-3 (B-Cell Non-Hodgkin's Lymphoma)
How it was run: as §1

[13] = test system: NB7 (Neuroblastoma)
How it was run: as §1

[14] = test system: NCI-H2405 (Lung Adenocarcinoma)
How it was run: as §1

Row | SMILES | combination Emax [1] | combination Emax [2] | combination Emax [3] | combination Emax [4] | combination Emax [5] | combination Emax [6] | combination Emax [7] | combination Emax [8] | combination Emax [9] | combination Emax [10] | combination Emax [11] | combination Emax [12] | combination Emax [13] | combination Emax [14]
1 | COc1nnc2ccc(N3CCC(c4ccc(OCCN5CCN(C)C(=O)[C@H]5C)cc4)CC3)nn12 [AZD5153] + Cn1cnc2c(F)c(Nc3ccc(Br)cc3Cl)c(C(=O)NOCCO)cc21 [Selumetinib] (first compound max 1 µM, 7x7, partner max 10 µM) | 0.626 | 0.75 | 0.302 | 0.855 | 0.677 | 0.534 | 0.579 | 0.59 | 0.936 | 0.83 | 0.323 | 0.93 | 0.45 | 0.521
2 | CCN(CCO)CCCOc1ccc2c(Nc3cc(CC(=O)Nc4cccc(F)c4)[nH]n3)ncnc2c1 [AZD2811] + C[C@@H]1COCCN1C2=NC(=NC(=C2)C3(CC3)[S@](=N)(=O)C)C4=C5C=CNC5=NC=C4 [AZD6738] (first compound max 1 µM, 7x7, partner max 10 µM) | 0.663 | 0.336 | 0.443 | 0.43 | 0.856 | 0.748 | 0.668 | 0.743 | 0.994 | 0.435 | 0.302 | 0.973 | 0.603 | 0.26
3 | Cc1nc(Nc2ncc(C(=O)Nc3c(C)cccc3Cl)s2)cc(N2CCN(CCO)CC2)n1 [Dasatinib] + CC(=O)Nc1cccc(-n2c(=O)n(C3CC3)c(=O)c3c(Nc4ccc(I)cc4F)n(C)c(=O)c(C)c32)c1 [Trametinib] (first compound max 2 µM, 7x7, partner max 1 µM) | 0.828 | 0.856 | 0.68 | 1 | 0.87 | 0.0542 | 0.368 | 0.13 | 0.819 | 0.578 | 0.465 | 0.358 | 0.65 | 0.712
